Read-outs that look alike come from different tables or passages of the source.
Tests used:
[1] = tested on: adult male C57 mice; assay: Tail suspension test (TST); type: in vivo, mouse; details: route sc, p < 0.05 compared to vehicle-treated mice; for minimal effective dose: Mus musculus, read-out: Active TST Dose
Procedure: The experiments were performed using adult male C57 mice (6-10 weeks of age, 20-30 g, Hilltop Lab, PA). The mice were housed in standard rodent cages with stainless steel mesh wire bar lids in groups of 4 with controlled temperature and light cycle (6:00 a.m.-6:00 p.m.). Animals were given free access to food (Harlan Teklad Global 18% protein (Madison, Wis.)) and water during a minimum 2-day habituation period to the laboratory. Animals that were used in the study were handled, housed, and sacrificed (using compressed CO2) in accord with the current NIH guidelines regarding the use and care of laboratory animals, and all applicable local, state, and federal regulations and guidelines. Animals are identified by cage number, and by markings applied to the proximal tip of the tail using a permanent marker. Group sizes (n=8, and therefore 30-50 animals per study) provide reliable estimates of treatment effects, and this species and strain of mouse has been recognized as appropriate for pharmacology studies.
To measure efficacy of the compounds the compounds were tested using a tail suspension test. The tail suspension test is a behavioral test used to evaluate the efficacy of antidepressant drugs in rodents. In the TST, mice (n=8/group) were suspended by the tail with tape approximately 30-50 cm above the lab bench. Mice are positioned such that the base of their tail is perpendicular to the lab bench. Each mouse is given 1 trial that last 6 minutes. The total duration of immobility is calculated as the percentage of time that the mouse is immobile. The duration of immobility is the main parameter measured. This is calculated from the cumulated time during which the animals is absent of initiated movements including passive swaying. When antidepressant drugs are administered, immobility is decreased by a variety of classes of antidepressant drugs. One or more of the compounds show antidepressant activity.

[2] = tested on: rat; assay: Mechanical allodynia after Freund's Complete Adjuvant, Randall-Selitto (rat); type: in vivo; details: route sc, p < 0.05 vs vehicle
Procedure: (§1) Animals were acclimated to the vivarium for at least 48 hr prior to behavioral testing. Inflammation was induced for both rodent species with the administration of an intraplantar (subcutaneous injection into the plantar surface of the hind paw, i.pl.) injection of 0.10 ml Freund's Complete Adjuvant (FCA).
For rat studies, the experiments were conducted 24 hours after CFA administration. Rats are tested for mechanical allodynia in a Randall-Selitto apparatus. The inflamed paw is put on a pedestal and a pointed force of increasing intensity (0 to 250 grams) is applied to the paw. When the animal struggles to withdraw from the force the test is stopped and the force to induce that struggle is recorded. Data may be presented as mean grams of force to withdrawal or a percentage of the maximum possible effect.

[3] = tested on: mouse; assay: Tactile allodynia produced by nitroglycerin (migraine model, mouse); type: in vivo; details: route sc, nitroglycerin 10 mg/kg ip, p < 0.05 vs vehicle; for minimal effective dose: read-out: Active Migraine Doses
Procedure: Compounds were tested for efficacy in rodent models of nitroglycerine induced migraine. In this model both rats and mice can be induced to have a behavioral response consistent with the progression of a migraine attack by the intraperitoneal injection of nitroglycerin. In this test mice or rats (n=8/group) are given an intraperitoneal injection of nitroglycerin at 10 mg/kg. After 90 minutes the animals are subcutaneously dosed with test compound. A measurement of mechanical allodynia will be obtained using the up/down method with seven von Frey monofilaments. There is a specific series used for rat and mouse. Each monofilament is delivered to the hind paw for approximately 1-2 seconds. If there is a response, the next lower force will be delivered. This procedure will be performed until no response was made at the highest force or until four stimuli are administered following the initial response. The 50% paw withdrawal threshold for the hind paw will be calculated using the following formula: [Xth]log=[vFr]log+ky where [vFr] is the force of the last von Frey used, k is the average interval (in log units) between the von Frey monofilaments, and y is a value that depends upon the pattern of withdrawal responses. Testing for tactile sensitivity will be performed and a withdrawal value will be assigned as the tactile sensitivity (expressed in grams of force required to elicit a response) for the injected paw for each animal. Data is presented as the mean grams required to produce a hind paw withdrawal from the von Frey stimulus. […] Compounds found to be effective in this model of migraine at the doses indicated, although other doses may also be active. Other compounds described herein were not necessarily tested, but are expected to be able have some level of efficacy.

[4] = tested on: rat; assay: Tactile allodynia produced by nitroglycerin (migraine model, rat); type: in vivo; details: route sc, nitroglycerin 10 mg/kg ip, p < 0.05 vs vehicle
[5] = tested on: mouse; assay: Tactile allodynia produced by intraplantar Freund's Complete Adjuvant, von Frey (mouse); type: in vivo; details: route sc, p < 0.05 vs vehicle
Procedure: as §1
For mouse studies, the experiments were conducted 48 hours after FCA administration. Tactile allodynia was measured using a series of von Frey monofilaments. These filaments are bendable, plastic and intended to poke, not penetrate, the skin. Animals were placed in a Plexiglas chamber (approximately 10 cm×20 cm×25 cm) and allowed to habituate for 5-10 minutes. The chamber was positioned on top of a mesh screen so that von Frey monofilaments can be presented to the plantar surface of the hind paw that is inflamed. The measurement of tactile sensitivity for the injected hind paw is obtained using the up/down method (LaBuda and Little, 2005, J Neurosci. Methods, 144, 175) with […]. Each trial will start with a von Frey force of 0.6 grams delivered to the hind paw for approximately 1-2 seconds. If there was no withdrawal response, the next higher force was be delivered. If there was a response, the next lower force was delivered. This procedure was performed until no response was made at the highest force (2 grams) or until four stimuli are administered following the initial response. The 50% paw withdrawal threshold for the hind paw was be calculated using the following formula: [Xth]log=[vFi]log+ky where [vFr] is the force of the last von Frey used, k is the average interval (in log units) between the von Frey monofilaments, and y is a value that depends upon the pattern of withdrawal responses (Dixon, Annual Review Pharmacol Toxicol, 1980, 20, 441).

[6] = molecular target: T1, delta-opioid receptor (Accession NP_000902) (Homo sapiens, UniProt P41143); assay: cAMP assay (receptor G-protein mediated response, HTRF); type: cell-based
T1 sequence (P41143 whole entry): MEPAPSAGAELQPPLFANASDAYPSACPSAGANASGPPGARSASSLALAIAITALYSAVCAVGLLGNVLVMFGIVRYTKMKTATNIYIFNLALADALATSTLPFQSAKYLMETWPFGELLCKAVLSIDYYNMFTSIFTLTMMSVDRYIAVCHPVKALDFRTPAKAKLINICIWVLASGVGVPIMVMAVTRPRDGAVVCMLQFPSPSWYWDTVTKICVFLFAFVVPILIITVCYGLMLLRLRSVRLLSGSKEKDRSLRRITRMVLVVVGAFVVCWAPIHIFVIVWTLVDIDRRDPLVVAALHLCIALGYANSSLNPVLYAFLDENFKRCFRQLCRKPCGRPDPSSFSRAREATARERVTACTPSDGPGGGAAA
Procedure: (§2) Plasmids encoding delta-opioid receptor (Accession NP_000902), mu-opioid receptor (Accession NP_000905) and kappa-opioid receptor (Accession Assession NP_000903) were generated in the pCMV-Prolink backbone and transfected into an EA-arrestin parental human embryonic kidney (HEK-293) cell line from DiscoveRx Corporation. Clonal stable lines were subsequently selected under G418.
Cell lines were grown adherently in Minimum Essential Media (Cellgro cat #10-010-CM) containing 10% fetal bovine serum (Hyclone cat #SH30071.03), 4 mM glutamine (Cellgro cat #25-005-CI), 150 ug/ml hygromycin B (Cellgro cat #30-240-CR), 150 ug/ml G418 (Cellgro cat #30-234-CR), and 50 u/50 ug penicillin/streptomycin (Lonza cat #17-603E). […]
Receptor G-protein mediated responses were determined by measuring changes in intracellular cAMP using CisBio HTRF cAMP HiRange kit (cat #62AM6PEJ) based on time-resolved fluorescence resonance energy transfer (TR-FRET). […] Following a 30 minute incubation at 37° C. the components of the cAMP HiRange kit were added as directed and the plates were read after 1 hour on a BMG PheraStar plate reader. Responses were measured as the ratio of fluorescence at 665 nm/620 nm per manufacturer's instructions.

[7] = molecular target: T1, delta-opioid receptor (Accession NP_000902); assay: β-arrestin recruitment assay (DiscoveRx PathHunter); type: cell-based; details: HEK-293 cells
Procedure: as §2
Cell lines were grown adherently in Minimum Essential Media (Cellgro cat #10-010-CM) containing 10% fetal bovine serum (Hyclone cat #SH30071.03), 4 mM glutamine (Cellgro cat #25-005-CI), 150 ug/ml hygromycin B (Cellgro cat #30-240-CR), 150 ug/ml G418 (Cellgro cat #30-234-CR), and 50 u/50 ug penicillin/streptomycin (Lonza cat #17-603E). Prior to the assay cells were removed from the flasks with CellStripper (Cellgro cat #25-056-CI), repeatedly pipetted to disperse cells, and spun at low speed for 5 min at room temperature. Cells were then resuspended at 250,000 cells/ml in growth media and plated at 5,000 cells/well in 384 well plates (Greiner part #784080). […]
Receptor mediated beta-arrestin recruitment was determined using the DiscoveRx β-arrestin PathHunter Detection kit (cat #93-0001). […] Following a 60 minute incubation at 37° C. the components of the DiscoveRx β-arrestin PathHunter Detection kit were added as directed and the plates were read after 1 hour on a BMG PheraStar plate reader.

Row | Structure (SMILES) | minimal effective dose ([1]; po) [mg/kg] | minimal effective dose [3] [mg/kg] | Active Migraine Doses [4] [mg/kg] | further results
1 | C[C@@H]1[C@@H](COc2ccc3c(c2)C(=O)NC3)[C@H](c2ccc(F)cc2)CCN1CC1CC1 [Compound B0720] | ≤ 10 | ≤ 10 |  | Active CFA Dose [2]: ≤30 mg/kg
2 | CC1C(COc2ccc3c(c2)C(=O)NC3)C(c2ccc3c(c2)OCCC3)CCN1CCn1cccc1 (single isomer, unassigned; (-)) [Compound B1365, (−)-6-{[trans, trans-4-(3,4-dihydro-2H-1-benzopyran-7-yl)-2-methyl-1-[2-(1H-pyrrol-1-yl)ethyl]piperidin-3-yl]methoxy}-2,3-dihydro-1H-isoindol-1-one] |  |  | ≤10 | Active TST Dose [1]: ≤10 mg/kg; Active Migraine Doses [3]: ≤10 mg/kg
3 | COc1ccc([C@@H]2CCN(CCC=C(F)F)[C@H](C)[C@H]2COc2ccc3c(c2)C(=O)NC3)cc1 [Compound B1145, (−)-6-{[trans, trans-1-(4,4-difluorobut-3-en-1-yl)-4-(4-methoxyphenyl)-2-methylpiperidin-3-yl]methoxy}-2,3-dihydro-1H-isoindol-1-one] | ≤ 10 | ≤ 10 |  | Active CFA Dose [5]: ≤10 mg/kg
4 | COCCOc1ccc([C@@H]2CCN(CCn3cccc3)[C@H](C)[C@H]2COc2ccc3c(c2)C(=O)NC3)cc1F [Compound B1205, (−)-6-{[trans, trans-4-[3-fluoro-4-(2-methoxyethoxy)phenyl]-2-methyl-1-[2-(1H-pyrrol-1-yl)ethyl]piperidin-3-yl]methoxy}-2,3-dihydro-1H-isoindol-1-one] | ≤ 30 | ≤ 10 | ≤10 | 
5 | COc1ccc([C@@H]2CCN(CCn3cccc3)[C@H](C)[C@H]2COc2ccc3c(c2)C(=O)NC3)cc1 [Compound B0876, (−)-6-{[trans, trans-4-(4-methoxyphenyl)-2-methyl-1-[2-(1H-pyrrol-1-yl)ethyl]piperidin-3-yl]methoxy}-2,3-dihydro-1H-isoindol-1-one] | ≤ 30 | ≤ 10 | ≤10 | 
6 | COCCOc1ccc([C@@H]2CCN(CCc3ccccc3)[C@H](C)[C@H]2COc2ccc3c(c2)C(=O)NC3)cc1F [Compound B1194, (−)-6-{[trans, trans-4-[3-fluoro-4-(2-methoxyethoxy)phenyl]-2-methyl-1-(2-phenylethy)piperidin-3-yl]methoxy}-2,3-dihydro-1H-isoindol-1-one] |  | ≤ 10 |  | minimal effective dose [1]: ≤ 10 mg/kg
7 | Fc1ccc([C@@H]2CCNC[C@H]2COc2ccc3c(c2)OCO3)cc1 [Paroxetine] |  |  |  | hDOR G Span ([6]; G-protein mediated cAMP response, HEK-293 cells): <100; selectivity for the delta-opioid receptor ([6]; also tested at mu and kappa-opioid receptor): non-selectivity; hDOR B Span [7]: <100; EC50 ([7]; read-out: hDOR B pEC50 (converted)): > 1000 nM
8 | COc1cc(F)cc(C2CCN(CCn3cccc3)C(C)C2COc2ccc3c(c2)C(=O)NC3)c1 (mixture of isomers) [Compound B1274, (+/−)-6-{[(trans, trans)-4-(3-fluoro-5-methoxyphenyl)-2-methyl-1-[2-(1H-pyrrol-1-yl)ethyl]piperidin-3-yl]methoxy}-2,3-dihydro-1H-isoindol-1-one] |  |  |  | Active TST Dose [1]: ≤10 mg/kg
9 | C[C@@H]1[C@@H](COc2ccc3c(c2)C(=O)NC3)[C@H](c2ccccc2)CCN1CCC=C(F)F [Compound B1211] |  | ≤ 10 |  | minimal effective dose [1]: ≤ 10 mg/kg
10 | COCCOc1ccc([C@@H]2CCN(CCc3ccccc3F)[C@H](C)[C@H]2COc2ccc3c(c2)C(=O)NC3)cc1 [Compound B1079] | ≤ 30 |  |  | 
11 | COc1cc(F)cc([C@@H]2CCN(CCn3cccc3)[C@H](C)[C@H]2COc2ccc3c(c2)C(=O)NC3)c1 (racemic) [Compound B1401, (−)-6-{[trans, trans-4-(3-fluoro-5-methoxyphenyl)-2-methyl-1-[2-(1H-pyrrol-1-yl)ethyl]piperidin-3-yl]methoxy}-2,3-dihydro-1H-isoindol-1-one] |  | ≤ 10 | ≤10 | minimal effective dose [1]: ≤ 10 mg/kg
